Test results as given in patent US20240122890A1, “USE OF EXOGENOUS KETONE ESTERS TO INDUCE WEIGHT LOSS IN MAMMALS” (Buck Institute for Research on Aging, priority 2021, published 2024).

Columns and labels:
[1] = Waking body weight with daily ketone ester consumption in a person with obesity; assay type: in vivo, human; conditions: for Weight (waking body weight): daily 25 g KE
Protocol: This example describes the effect of daily ketone ester consumption in a person with obesity (BMI=42.5 kg/m^2). The subject began consuming one 25 g serving of KE each morning on Nov. 15, 2021, and maintained daily consumption each morning for 7 weeks. The KE was in a commercially available consumer-friendly beverage formulation (Juvenescence, NJ, USA). Body weight was recorded by the subject after waking each morning (see, e.g., Table 1 and FIG. 3). […] The highest body weight in this period was on Nov. 15, 2021 (288 lbs), and the lowest was on Day Dec. 21, 2021 (254 lbs), giving a total weight loss of 34 lbs (11.8% of starting body mass)

[2] = Body weight of mice swapped to a diet containing 20% KE; assay type: in vivo, C57/BL6 mice; conditions: diet containing 20% KE (by weight); n=5 female
From the text: Male (n=10) and female (n=10) C57/BL6 mice were fed control diet for one week. The next week n=5 male and n=5 female mice were swapped to a diet containing 20% KE (by weight) mixed into a custom-made diet.

[3] = 25 g KE each morning, highest to lowest body weight

Which results are given for `CCCCCC(=O)OCC[C@@H](C)OC(=O)CCCCC` [KE, bis hexanoyl (R)-1,3-butanediol]?
lowest body weight in this period ([1]; 25 g KE each morning, Dec. 21, 2021): 254 lbs; highest body weight in this period ([1]; 25 g KE each morning, Nov. 15, 2021): 288 lbs; total weight loss [1, 3]: 34 lbs; total weight loss, % of starting body mass [1, 3]: 11.8%; Weight (waking body weight) ([1]; 1 Dec. 2021): 272.5 lbs; Weight (waking body weight) ([1]; 1 Jan. 2022): 258 lbs; Weight (waking body weight) ([1]; 2 Dec. 2021): 272.5 lbs; Weight (waking body weight) ([1]; 2 Jan. 2022): 257 lbs; Weight (waking body weight) ([1]; 3 Dec. 2021): 272 lbs; Weight (waking body weight) ([1]; 3 Jan. 2022): 255.5 lbs; Weight (waking body weight) ([1]; 4 Dec. 2021): 271 lbs; Weight (waking body weight) ([1]; 4 Jan. 2022): 255.5 lbs; Weight (waking body weight) ([1]; 5 Dec. 2021): 270 lbs; Weight (waking body weight) ([1]; 5 Jan. 2022): 256 lbs; Weight (waking body weight) ([1]; 6 Dec. 2021): 268.5 lbs; Weight (waking body weight) ([1]; 7 Dec. 2021): 267.5 lbs; Weight (waking body weight) ([1]; 8 Dec. 2021): 267 lbs; Weight (waking body weight) ([1]; 9 Dec. 2021): 266 lbs; Weight (waking body weight) ([1]; 10 Dec. 2021): 265.5 lbs; Weight (waking body weight) ([1]; 11 Dec. 2021): 264.5 lbs; Weight (waking body weight) ([1]; 12 Dec. 2021): 264 lbs; Weight (waking body weight) ([1]; 13 Dec. 2021): 262.5 lbs; Weight (waking body weight) ([1]; 14 Dec. 2021): 261.5 lbs; Weight (waking body weight) ([1]; 15 Dec. 2021): 260.5 lbs; Weight (waking body weight) ([1]; 15 Nov. 2021): 288 lbs; Weight (waking body weight) ([1]; 16 Dec. 2021): 258 lbs; Weight (waking body weight) ([1]; 16 Nov. 2021): 286.5 lbs; Weight (waking body weight) ([1]; 17 Dec. 2021): 256 lbs; Weight (waking body weight) ([1]; 17 Nov. 2021): 284 lbs; Weight (waking body weight) ([1]; 18 Dec. 2021): 256 lbs; Weight (waking body weight) ([1]; 18 Nov. 2021): 283 lbs; Weight (waking body weight) ([1]; 19 Dec. 2021): 255 lbs; Weight (waking body weight) ([1]; 19 Nov. 2021): 283 lbs; Weight (waking body weight) ([1]; 20 Dec. 2021): 255 lbs; Weight (waking body weight) ([1]; 20 Nov. 2021): 282.5 lbs; Weight (waking body weight) ([1]; 21 Dec. 2021): 254 lbs; Weight (waking body weight) ([1]; 21 Nov. 2021): 281.5 lbs; Weight (waking body weight) ([1]; 22 Dec. 2021): 256 lbs; Weight (waking body weight) ([1]; 22 Nov. 2021): 279.5 lbs; Weight (waking body weight) ([1]; 23 Dec. 2021): 258 lbs; Weight (waking body weight) ([1]; 23 Nov. 2021): 279 lbs; Weight (waking body weight) ([1]; 24 Dec. 2021): 257 lbs; Weight (waking body weight) ([1]; 24 Nov. 2021): 278 lbs; Weight (waking body weight) ([1]; 25 Dec. 2021): 258 lbs; Weight (waking body weight) ([1]; 25 Nov. 2021 (first line of this date)): 278 lbs; Weight (waking body weight) ([1]; 25 Nov. 2021 (second line of this date)): 276.5 lbs; Weight (waking body weight) ([1]; 26 Dec. 2021): 260 lbs; Weight (waking body weight) ([1]; 26 Nov. 2021): 275 lbs; Weight (waking body weight) ([1]; 27 Dec. 2021): 258 lbs; Weight (waking body weight) ([1]; 27 Nov. 2021): 275 lbs; Weight (waking body weight) ([1]; 28 Dec. 2021): 257 lbs; Weight (waking body weight) ([1]; 28 Nov. 2021): 273.5 lbs; Weight (waking body weight) ([1]; 29 Dec. 2021): 258 lbs; Weight (waking body weight) ([1]; 29 Nov. 2021): 273 lbs; Weight (waking body weight) ([1]; 30 Dec. 2021): 260.5 lbs; Weight (waking body weight) ([1]; 30 Nov. 2021): 273 lbs; Weight (waking body weight) ([1]; 31 Dec. 2021): 260 lbs; deaths [2]: Two female animals died due to rapid weight loss
